Test results as given in US9371295B2, “Compounds for use in the treatment of disorders that are ameliorated by inhibition of HDAC” (IRBM—Science Park S.p.A., priority 2012, dated 2016).
Where “and” joins values, the source holds several entries; their conditions need not be identical. Equal values may be shown once.

What was measured:
[1] = Rat PK studies, oral dose; assay type: in vivo, Sprague-Dawley rats; settings: male, Sprague-Dawley, plasma, po 10 mg/kg
Method: Rats Male Sprague-Dawley rats (250-350 g) were used for the absorption disposition studies. In each rat an indwelling cannula was implanted in the right jugular vein for blood sampling. The surgery was performed under light anaesthesia (Ketamine-Xilazine (85 mg/kg and 2.5 mg/kg respectively i.m.) one day prior the experiment). During the kinetic study, all animals were housed individually in plastic metabolism cages, and were unrestrained throughout the experiment. Compounds (6 mg/mL) were dissolved in 20% DMSO/60% PEG400/20% water for intravenous administration, and dissolved or suspended in 1% methylcellulose for oral administration (2 mg/ml). After an overnight fast, the rats received an i.v. (via caudal vein) or an oral dose of the compound. Blood samples were collected at different times point after dosing. Plasma was separated immediately after blood sampling by centrifugation, and the plasma samples were kept frozen (−20° C.) until assayed by LC/MS/MS.
Analytical procedures: Plasma samples were extracted using Liquid Handling Robot MultiProbe Packard by protein precipitation with acetonitrile. Then the samples were centrifuged (3000 rpm×15 min at 4° C.) and the supernatant transferred and dried under nitrogen. The samples were reconstituted in water/acetonitrile 90/10 and then injected directly into an HPLC column. Sample analyses were performed using a an API 3000 or/and API 2000 or/and API 4000 Mass Spectrometer interfaced via the Turbo Ion Spray (ESI)/APCI to an LC system consisting of an HTS PAL CTC autosampler and an Agilen HP 1100 Binary Pump. The results are calculated using Analyst Software linear regression with 1/x*x weighting. The Assay Precision was calculated for the Quality Controls by Watson Lims database.
Pharmacokinetic Analysis: The plasma clearance (CLp) of the compounds were calculated (using Watson PK program) as the dose divided by the area under the plasma concentration-time curve from time zero to infinity (AUC0-∞). The apparent half-life was estimated from the slope of the terminal phase of the log plasma concentration-time data. The volume of distribution (Vdss) was determined using the following noncompartmental method: Vdss=(Dose IV×AUMC)/(AUC0-∞)2
where AUMC is the total area under the first moment of the drug concentration time curve from time zero to infinity. Bioavailability was estimated as the AUC0-∞ ratio following oral and intravenous administration, normalized for differences in dose.

[2] = test system: erythroid precursor cells (ErPC) from β-thalassemia patients; experiment: Fetal hemoglobin production in erythroid precursor cells from β-thalassemia patients (HPLC); assay type: cell-based, human
Text: Stimulation of the production of mRNA for γ-globin in human erythroid precursors isolated from peripheral blood was detected by using the technique by Fibach (Fibach, E. Hemoglobin, 1998, 22, 445-458; Blood, 1993, 81, 1630-1635). Blood samples were obtained from subjects after written informed consent and the local ethical commette approved the study. This technique provides for two stages: in the first stage, the cells isolated from peripheral blood of an healthy subject or a subject suffering from a hemopoietic pathology, such as sickle cell anaemia or beta-thalassemia, are sown in a culture medium to which 10% of conditioned medium derived from the vescicle carcinoma cell line 5637 has been added. The second stage consists in cultivating the isolated cells in a suitable culture medium, supplemented with erythropoiethin. In short, mononuclear cells were isolated from peripheral blood samples of normal donors and patients by Ficoll-Hypaque density gradient centrifugation and seeded in alpha-minimal essential medium (Sigma-Aldrich) supplemented with 10% FBS (Analitica de Mori), 1 μg/mL cyclosporin A (Sigma-Aldrich), and 10% conditioned medium from the 5637 bladder carcinoma cell line and 10 ng/ml stem cell factor (PeproTech EC Ltd, London, England). After 7-day incubation in this phase I culture, the non-adherent cells were harvested, washed, and recultured in fresh medium composed of α-medium, 30% FBS, 1% de-ionized bovine serum albumin (Sigma-Aldrich), 10^−5 M β-mercaptoethanol, 2 mM L-glutamine, 10^−6 M dexamethasone, 1 U/ml human recombinant erythropoietin (Tebu-bio, Magenta, MI, Italy) and 10 ng/ml stem cell factor. This part of the culture is referred to as phase II. Compounds were added on day 4-5 of phase II and cells were harvested on day 12. All cultures were incubated at 37° C., under an atmosphere of 5% CO2 in air, with extra humidity. The expression of the genes encoding for γ-globin was evaluated by quantitative RT-PCR. The production of HbF was analyzed by HPLC. […]

AUC [1]: 40 µM·h
Cmax [1]: 2790 nM
SMILES: CCC(=O)CCCCC[C@H](NC(=O)C1CN(C)C1)c1ncc(-c2cc3ccccc3nc2OC)o1 [Compound 2, (S)-N-(1-(5-(2-methoxyquinolin-3-yl)oxazol-2-yl)-7-oxononyl)-1-methylazetidine-3-carboxamide]
% of fetal hemoglobin production ([2]; ErPC from β-thalassemia patients 1-3 (one line per patient), 100 nM): 78.6% and 85.5% and 81.5%
proportion of HbF in lysates (cation-exchange HPLC, FIG. 1) ([2]; ErPC from β-thalassemic patients, 100 nM, in words): Increase in the proportion of HbF is detectable
induction of HbF in erythroid precursor cells (ErPC) ([2]; ErPC from β-thalassemic patients, in words): strong inducer of HbF
